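96-well plates; 48 h exposure; 5 concentrations. Endpoints by linear interpolation between flanking doses. Not reached: highest tested concentration assigned. GI50: concentration for 50% inhibition of growth. TGI is the concentration that stops growth completely.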
Key:
Experiment in all cases: growth of human tumour cells (NCI), 48 h
[1] = tested on: HL-60(TB) leukemia
[2] = tested on: CCRF-CEM leukemia
[3] = tested on: MCF7 breast
[4] = tested on: RXF 393 renal
[5] = tested on: ACHN renal
[6] = tested on: EKVX NSCLC
[7] = tested on: 786-0 renal
[8] = tested on: PC-3 prostate
[9] = tested on: SF-268 CNS
[10] = tested on: NCI-H226 lung

SMILES | TGI [1] [µM] | TGI [2] [µM] | TGI [3] [µM] | TGI [4] [µM] | TGI [5] [µM] | TGI [6] [µM] | TGI [7] [µM] | TGI [8] [µM] | TGI [9] [µM] | TGI [10] [µM] | GI50 [1] [µM] | GI50 [2] [µM] | GI50 [3] [µM] | GI50 [4] [µM] | GI50 [5] [µM] | GI50 [6] [µM] | GI50 [8] [µM] | GI50 [9] [µM] | GI50 [10] [µM]
CCOC(=O)C(NCc1cccc(C(F)(F)F)c1)(NC(=O)c1ccccc1)C(F)(F)F (stereo not given) | > 100 | > 100 | > 100 | 72.1 | 79.5 | 83.9 | 79.5 | > 100 | > 100 | > 100 |  |  |  |  |  |  |  |  | 
CC(=O)OCC1OC(c2nnc(C)o2)=CC(OC(C)=O)C1OC(C)=O (stereo not given) | > 100 | > 100 | > 100 | > 100 | > 100 | > 100 | > 100 | > 100 | > 100 | > 100 |  |  |  |  |  |  |  |  | 
Nc1ccc(-n2c(=O)oc3ccc(Cl)cc3c2=O)c(Cl)c1 | 0.267 | 1.56 | > 31.8 | 0.293 | 4.41 | > 56.3 |  | 9.59 | 2.33 | 0.787 | 0.0499 | 0.139 | 0.262 | 0.0838 | 0.169 | 0.213 | 0.264 | 0.108 | 0.154
CC1CCC2(CC1)N=C1CCC(C)CC1C1(CCC(C)CC1)N2 (stereo not given) | > 100 | > 100 | > 100 | > 100 | > 100 |  | > 100 | > 100 |  | > 100 |  |  |  |  |  |  |  |  | 
COc1ccc2c(c1)-c1nn(CCN(C)C)c3ccc(C(=O)NCCCN(C)CCCNC(=O)c4ccc5c6c(nn5CCN(C)C)-c5cc(OC)ccc5Nc46)c(c13)N2 | 2.63 | 0.141 | 1.97 | 0.499 | 7.28 | 1.68 | 1.9 | 1.09 | 2.46 | 0.541 |  |  |  |  |  |  |  |  | 
O=C1C(N=Nc2ccc(-c3nc4ccccc4[nH]3)cc2)NC(=S)N1c1ccccc1 (stereo not given) | > 100 | 56 | 24.8 | 47.3 | > 100 | > 100 | 39 | > 100 | > 100 | > 100 |  |  |  |  |  |  |  |  | 
OCCO[P+]1(OCCO)n2c3ccc2C(c2ccccc2)=C2C=CC(=N2)C(c2ccccc2)=c2ccc(n21)=C(c1ccccc1)C1=NC(=C3c2ccccc2)C=C1 | 0.222 | 0.252 | > 100 | 0.563 | 1.1 | 1.04 | 1.28 | 1.59 | 2.15 |  |  |  |  |  |  |  |  |  | 
COC(=O)c1ccccc1CC(Cc1ccccc1)C(=O)OC (stereo not given) | 55.9 | > 100 | > 100 | 70.9 | > 100 | > 100 | > 100 | > 100 | 61.3 | > 100 |  |  |  |  |  |  |  |  | 
CC(C)(C)c1cc(C2COC(=O)COCC(=O)OCCOCCOCCO2)cc(C(C)(C)C)c1O (stereo not given) | > 31.6 | > 100 | > 100 | 41.3 | 37.2 | > 100 | 43.3 | > 100 | 41.3 | > 100 |  |  |  |  |  |  |  |  | 
CCOC(=O)C(=Cn1c(=S)[nH]c2ccc([N+](=O)[O-])cc21)C(=O)OCC | > 100 | > 100 | > 100 | > 100 | > 100 | > 100 | > 100 | > 100 | > 100 | > 100 |  |  |  |  |  |  |  |  | 
C#CCOC(=O)C(N)CCCN=C(N)N (stereo not given) | > 100 | > 100 | > 100 | > 100 | > 100 | > 100 | > 100 | > 100 | > 100 | > 100 |  |  |  |  |  |  |  |  | 
O=C(NN1C(=O)C=CC1=O)c1ccccc1Nc1ccccc1C(=O)NN1C(=O)C=CC1=O | > 100 | > 100 | > 100 | > 100 | > 100 | > 100 | > 100 | > 100 | > 100 | > 100 |  |  |  |  |  |  |  |  | 
CCOC(=O)C(C)c1nc2cc(N3CCN(C)CC3)c(F)cc2[nH]c1=O (stereo not given) | > 100 | > 100 | > 100 | > 100 | > 100 | > 100 | > 100 | > 100 | > 100 | > 100 |  |  |  |  |  |  |  |  | 
CC[C@@H]1CC[C@@H]2[C@H](CC[C@]3(C)[C@@H](OS(=O)(=O)c4ccc(C)cc4)CC[C@@H]23)[C@H]1CO | > 100 | > 100 | > 100 | > 100 | > 100 | > 100 | > 100 | > 100 | > 100 | > 100 |  |  |  |  |  |  |  |  | 
COc1cc2c(cc1Cl)n([O-])c(C#N)c(N1CCN(c3ccc([N+](=O)[O-])cc3)CC1)[n+]2=O | > 100 | > 100 | > 100 | > 100 | > 77.2 | > 100 | > 100 | > 100 | > 84 | > 100 |  |  |  |  |  |  |  |  | 
